Consider 4 molecules from patent US20250275969A1, “METHODS OF TREATING MALIGNANT PERIPHERAL NERVE SHEATH TUMOR (MPNST) USING LSD1 INHIBITORS” (ORYZON GENOMICS, S.A., priority 2022, published 2025).

Common to all, as to assay type: cell-based
One series deals with sNF02.2. The series can be described thus: MPNST viability assay (6 days, MTT or AlamarBlue). Particulars: for EC50: cell viability, sNF02.2, 6 days of treatment. As to the method:
(§1) Mycoplasma-free MPNST cell lines (see Table 1) were seeded in 50 μl/well of complete medium (DMEM high glucose supplemented with 1× GlutaMAX™, 1× sodium pyruvate and 10% fetal bovine serum (FBS), Thermo Fisher) in 96-well plates at the optimal cell density to ensure log-phase growth throughout the duration of the experiment (see Table 1). The day after seeding, 50 μl of medium containing 9 serial dilutions (1:3) of 2×-concentrated iadademstat (LSD1 inhibitor; used as the dihydrochloride salt) were added to the cells to obtain 100 μl of cells treated with 1×-concentrated compound at each dilution. Etoposide (topoisomerase II/DNA synthesis inhibitor) was also included as a positive control of the assay. Additionally, from the MPNST cell line panel, two cell lines (sNF96.2 and sNF02.2) were selected to evaluate the effect of other LSD1 inhibitors, i.e. bomedemstat (bis-tosylate salt) and pulrodemstat (besylate salt). Each experimental condition was tested in technical triplicates, including medium-only wells and vehicle-treated controls for background correction and normalization, respectively. After treatment, cells were incubated at 37° C. in a humidified and controlled 5% CO2 atmosphere for 72 h. At this time-point, compound and medium refreshment was performed by adding 50 μl of medium supplemented with 1×-concentrated compound at each corresponding dilution. Cells were incubated for additional 72 h (for a total of 6 days) prior to evaluating cell viability using either the MTT assay (Sigma-Aldrich) or AlamarBlue™ Cell viability reagent (Life Technologies), following manufacturer's instructions. Background was calculated as the mean of the values of medium-only controls and subtracted from each data point. The average of background-corrected technical triplicates was calculated and normalized by the mean of vehicle-treated controls (corresponding to 100% of viability). Data were analyzed using GraphPad PRISM® version 9.0.1 (GraphPad Software, Inc., La Jolla, CA/USA) to calculate the best-fitting curves and the EC50 values (corresponding to the concentration of compound at which a half (50%) maximal effect is obtained; lower EC50 values thus indicate greater potency).
(§2) LSD1 inhibitors such as iadademstat have been reported to exert their therapeutic effect by inducing cancer cell differentiation and inhibiting cancer cell proliferation rather than by killing cancer cells (Sacilotto N et al., ACS Pharmacol Transl Sci, 2021, 4(6):1818-34, doi: 10.1021/acsptsci.1c00223). In line with this, a cancer cell viability reduction of more than 30% reflects a potent therapeutic effect of the corresponding LSD1 inhibitor. In the present experiment, the response obtained after LSD1 inhibitor treatment was therefore classified into the following three groups: (1) strong response (viability reduction >30%); (2) medium response (viability reduction >15% and <30%); (3) low response (viability reduction <15%). Table 3 summarizes the EC50 values obtained for etoposide (the positive control of the assay) and iadademstat together with the classification according to viability reduction after LSD1 inhibitor treatment.
For orientation: The colour change of resazurin is a common sign of viable cells or microbes.

For another series, the system named is sNF96.2. As to the kind of experiment: MPNST viability assay (6 days, MTT or AlamarBlue). Particulars: for EC50: cell viability, sNF96.2, 6 days of treatment. As to the method: as §1, §2
A further series relates to MPNST-SP-10. The series can be described thus: MPNST viability assay (6 days, MTT or AlamarBlue). Particulars: for EC50: cell viability, MPNST-SP-10, 6 days of treatment. As to the method:
as §1, §2

In another series the test system is MPNST-SP-01. The series can be described thus: MPNST viability assay (6 days, MTT or AlamarBlue). As for the experimental part:
as §1, §2

The next series concerns S462. The series can be described thus: MPNST viability assay (6 days, MTT or AlamarBlue). Particulars: for EC50: cell viability, S462, 6 days of treatment. As to the method:
as §1, §2

The next series relates to HS-PSS. The series can be described thus: MPNST viability assay (6 days, MTT or AlamarBlue). Particulars: for EC50: cell viability, 6 days of treatment. As for the experimental part:
as §1, §2

The next series relates to ST88-14. As to the kind of experiment: MPNST viability assay (6 days, MTT or AlamarBlue). As to conditions: for EC50: cell viability, ST88-14, 6 days of treatment. As for the experimental part:
as §1, §2

The test system of a further series is MPNST-NF1-09. The series can be described thus: MPNST viability assay (6 days, MTT or AlamarBlue). As to the method: as §1, §2
Another series deals with MPNST-NF1-18b. The series can be described thus: MPNST viability assay (6 days, MTT or AlamarBlue). Particulars: for EC50: cell viability, 6 days of treatment. As for the experimental part: as §1, §2
A further series has as its system 90-8TL. The series can be described thus: MPNST viability assay (6 days, MTT or AlamarBlue). Particulars: for EC50: cell viability, 6 days of treatment. As for the experimental part:
as §1, §2

A further series deals with NMS-2. As to the kind of experiment: MPNST viability assay (6 days, MTT or AlamarBlue). As to the method: as §1, §2
The next series relates to MPNST-NF1-08. The series can be described thus: MPNST viability assay (6 days, MTT or AlamarBlue). As to the method:
as §1, §2

The subject of series [1] is panel of 12 MPNST cell lines. As to the kind of experiment: MPNST viability assay, summary over the cell line panel. As to the method: as §1
A panel of 12 MPNST cell lines was used to evaluate the effects of the LSD1 inhibitor iadademstat on MPNST cell viability after 6 days of treatment, and etoposide was used as a positive control of the assay. In order for the in vitro experiments to reliably mirror the situation in the clinical setting, where MPNST patients feature a great genomic heterogeneity, a panel of different types of MPNST cell lines was used. The panel comprises both MPNST immortalized lines and MPNST cell lines derived from patients. […]

Setting [2] is: viability reduction class, 6 days.

For the molecule `CN1CCN(C(=O)[C@H](CCCN[C@@H]2C[C@H]2c2ccc(F)cc2)NC(=O)c2ccc(-n3ccnn3)cc2)CC1` [Bomedemstat, N-[(2S)-5-{[(1R,2S)-2-(4-fluorophenyl)cyclopropyl]amino}-1-(4-methylpiperazin-1-yl)-1-oxopentan-2-yl]-4-(1H-1,2,3-triazol-1-yl)benzamide], the EC50 (as a rule, the concentration giving half of the maximal effect) in the series on sNF02.2 (144 h) came to 0.094 nM; in the series with sNF96.2 (144 h), 1.28 nM.

For the molecule `COc1ccc(-c2c(-c3ccc(C#N)c(F)c3)nc(N3CCC(N)CC3)n(C)c2=O)cc1F` [Pulrodemstat, 4-[2-(4-aminopiperidin-1-yl)-5-(3-fluoro-4-methoxyphenyl)-1-methyl-6-oxo-1,6-dihydropyrimidin-4-yl]-2-fluorobenzonitrile], the values for the EC50 in the series with sNF02.2 (144 h) and with sNF96.2 (144 h) were 0.166 nM and 0.261 nM, respectively.

As to `COc1cc([C@@H]2c3cc4c(cc3[C@@H](O[C@@H]3O[C@@H]5CO[C@@H](C)O[C@H]5[C@H](O)[C@H]3O)[C@H]3COC(=O)[C@H]23)OCO4)cc(OC)c1O` [etoposide], the EC50 in the series on MPNST-SP-10 is 269 nM; in the series with sNF02.2 it was 144 nM; with MPNST-SP-01 (cell viability, MPNST-SP-01, 6 days of treatment), 1030 nM; with S462 it was 376 nM; in the series on sNF96.2 it was 108 nM; in the series on HS-PSS, 205 nM. For the same molecule, the EC50 with ST88-14 is 788 nM; with MPNST-NF1-09 (cell viability, MPNST-NF1-09, 6 days of treatment) it was 737 nM; in the series with MPNST-NF1-18b, 394 nM; in the series on 90-8TL it was 164 nM; with NMS-2 (cell viability, NMS-2, 6 days of treatment), 154 nM; in the series on MPNST-NF1-08 (cell viability, MPNST-NF1-08, 6 days of treatment), 740 nM.

`N[C@H]1CC[C@H](N[C@@H]2C[C@H]2c2ccccc2)CC1` [iadademstat, (trans)-N1-((1R,2S)-2-phenylcyclopropyl)cyclohexane-1,4-diamine]: the EC50 was 0.033 nM with MPNST-SP-10 (144 h); 0.017 nM in the series with sNF02.2 (144 h); 0.087 nM with S462 (144 h); 0.042 nM in the series with sNF96.2 (144 h); 0.046 nM with HS-PSS (144 h); 0.039 nM with ST88-14 (144 h). The EC50 is 0.025 nM in the series with MPNST-NF1-18b (144 h) and 0.026 nM in the series with 90-8TL (144 h). Also, the “Response to iadademstat (viability assay)” value is “Medium response (medium response (viability reduction >15% and <30%))” in the series with MPNST-SP-10 (viability reduction class, MPNST-SP-10, 6 days); “Medium response (medium response (viability reduction >15% and <30%))” with sNF02.2 (viability reduction class, sNF02.2, 6 days); “Low response (low response (viability reduction <15%))” with MPNST-SP-01 (viability reduction class, MPNST-SP-01, 6 days); “Strong response (strong response (viability reduction >30%))” in the series on S462 (viability reduction class, S462, 6 days); “Strong response (strong response (viability reduction >30%))” with sNF96.2 (viability reduction class, sNF96.2, 6 days); “Medium response (medium response (viability reduction >15% and <30%))” in the series on HS-PSS (setting [2]). The “Response to iadademstat (viability assay)” value in the series on ST88-14 (viability reduction class, ST88-14, 6 days) is “Medium response (medium response (viability reduction >15% and <30%))”; with MPNST-NF1-09 (viability reduction class, MPNST-NF1-09, 6 days), “Low response (low response (viability reduction <15%))”; in the series on MPNST-NF1-18b (setting [2]), “Strong response (strong response (viability reduction >30%))”; in the series with 90-8TL (setting [2]), “Medium response (medium response (viability reduction >15% and <30%))”; in the series on NMS-2 (viability reduction class, NMS-2, 6 days), “Low response (low response (viability reduction <15%))”; in the series with MPNST-NF1-08 (viability reduction class, MPNST-NF1-08, 6 days), “Low response (low response (viability reduction <15%))”. Also, the “potency among the LSD1 inhibitors tested (in words)” value in the series on sNF02.2 (sNF02.2, compared with bomedemstat and pulrodemstat) is “highest potency”; with sNF96.2 (sNF96.2, compared with bomedemstat and pulrodemstat), “highest potency”. Moreover, the “cell lines showing a strong viability reduction” value in [1] (3 out of 12 cell lines, 6-day treatment) stood at 25%. Further, the “cell lines showing a medium viability reduction” value in [1] (5 out of 12 cell lines, 6-day treatment) worked out at 41.67%. The “EC50 values (in words)” value in [1] (medium- and strong-responding cell lines) is “subnanomolar”. Further, in series [1] (of 12 cell lines, 6-day treatment), the “medium- and strong-responding cell lines, total” value worked out at 66.67%.
